{"source": "patent US20230052424A1", "about": "“Peramivir Dry Powder Inhaler and Method of Preparing the Same” (GUANGZHOU NUCIEN PHARMACEUTICAL CO., LTD, priority 2020, published 2023)", "key": {"[1]": {"tested_on": "Influenza A/PR/8/34 virus", "test": "Viral titer of mouse lung tissue (hemagglutination titer)", "type": "in vivo, Balb/c mice", "settings": "10 mg/kg intragastric once per day, lung suspension, logarithmic value of maximum dilution factor", "procedure": "84 SPF Balb/c mice, half male and half female, weighing 21.2˜26.6 g each, were stochastically divided into 7 groups: a normal control group, a virus model group, an oseltamivir phosphate capsule group (Tamiflu) (10 mg/kg), a peramivir I.V. group (10 mg/kg), and peramivir dry powder inhaler (example 3) groups I-III (0.1, 0.3, 0.9 mg/kg), twelve mice in each group (in each group, F04˜F06 and M04˜M06 were subjected to 24 h hemagglutination titer measurement, and F01˜F03 and M1˜M03 were subjected to 48 h hemagglutination titer measurement). […] Prior to daily administration, the peramivir I.V. injection was prepared into a 1.0 mg/mL liquor with 0.9% sodium chloride injection, and the oseltamivir phosphate capsule was prepared into a 0.5 mg/mL liquor with pure water. The mice in each group were all administered at 2 h post-modeling of the intranasal virus infection, wherein the mice in each peramivir DPI group were administered with a corresponding dosage of peramivir dry powder inhaler, the mice in the peramivir intravenous injection group were intravenously injected with the peramivir liquid as per a dosage of 10 mL/kg, the oseltamivir phosphate capsule group were intragastrically administered with oseltamivir phosphate liquid as per a dosage of 20 mL/kg, and the normal control group and the model control group were sprayed with air of the same volume via their trachea. The mice were administered once per day, 2 days in succession.\n6 mice, half male and half female, were stochastically selected from each group at 24 h and 48 h post-administration, respectively. The mice were euthanized by cervical dislocation and their lungs were procured through dissection and then put in a homogenizer. 0.9% sodium chloride injection was added according to a ratio of the lung weight (g) to 0.9% sodium chloride injection (mL)=1:9, followed by grinding the homogenates into mouse lung suspensions. The mouse lung suspensions were subjected to centrifugation at 2500 rpm for 20 min under a 4° C. environment, with the supernatant being acquired for future use. Except the first column, 50 μL PBS (Phosphate Buffer Saline) was added into hemagglutination plate wells. 100 μL to-be-tested supernatant was added into each well in the first column, respectively, followed by adding with serial dilution till the wells in the 11th column, and then 50 μL 0.5% chicken erythrocyte was added into each well, respectively, followed by setting for 40 min; the hemagglutination plate was then tilted to observe whether the erythrocyte flew in a teardrop shape. […]"}, "[2]": {"tested_on": "Influenza A/PR/8/34 virus", "test": "In vivo protection of mice infected with influenza virus (mortality, survival time)", "design": "species or system Balb/c mice", "settings": "10 mg/kg intragastric, once per day 5 days from 2 h post-infection, 10 mice, 15 days observed", "procedure": "80 SPF Balb/c mice, half male and half female, weighing 16.9˜22.6 g each, were stochastically divided into 8 groups: a normal control group, a virus model group, an oseltamivir phosphate capsule group (Tamiflu) (10 mg/kg), a peramivir intravenous injection group (10 mg/kg), and peramivir dry powder inhaler (example 3) groups I-IV (0.1, 0.3, 0.9, 2.7 mg/kg), ten mice in each group. […] Prior to daily administration, the peramivir intravenous injection was prepared into a 1.0 mg/mL liquor with 0.9% sodium chloride injection, and the oseltamivir phosphate capsule was prepared into a 0.5 mg/mL liquor with pure water. The mice in each group were all administered at 2 h post-modeling of the intranasal virus infection, wherein the mice in each peramivir dry powder inhaler group were administered with a corresponding dosage of peramivir dry powder inhaler, the mice in the peramivir intravenous injection group were intravenously injected with the peramivir liquid as per a dosage of 10 mL/kg, the oseltamivir phosphate capsule group were intragastrically administered with oseltamivir phosphate liquid as per a dosage of 20 mL/kg, and the normal control group and the model control group were sprayed with air of the same volume via their trachea. The mice were administered once per day, 5 days in succession. The first day (D1) of virus infection was counted from the next day of the intranasal virus inflection modeling."}, "[3]": {"settings": "listed as oseltamivir phosphate"}}, "note": "Marks after values point to notes of the source that are not given here."}
{"smiles": "CCOC(=O)C1=C[C@@H](OC(CC)CC)[C@H](NC(C)=O)[C@@H](N)C1", "note": "[Oseltamivir phosphate]", "values": [{"measurement": "hemagglutination titer", "setting": "[1]; 24 h, n = 6", "result": "2.5 ± 0.5"}, {"measurement": "hemagglutination titer", "setting": "[1]; 24 h, n = 6, listed as oseltamivir phosphate", "result": "notably decreased"}, {"measurement": "hemagglutination titer", "setting": "[1]; 48 h, n = 6", "result": "2.2 ± 0.8"}, {"measurement": "hemagglutination titer", "setting": "[1]; 48 h, n = 6, listed as oseltamivir phosphate", "result": "notably decreased"}, {"measurement": "Average number of survival days", "setting": "[2]", "result": "11.3 ± 4.8", "unit": "days"}, {"measurement": "Mortality rate (%)", "setting": "[2]", "result": "40** %"}, {"measurement": "Number of deaths", "setting": "[2]", "result": 4}, {"measurement": "Number of survivals", "setting": "[2]", "result": 6}, {"measurement": "Average number of survival days", "setting": "[2]; [3]", "result": "significantly prolonged"}, {"measurement": "Mortality rate (%)", "setting": "[2]; [3]", "result": "significantly decreased"}]}
